Patent publication US4529589A, “Pharmaceutical composition for the treatment of diabetes mellitus” (priority 1981, dated 1985)

Experiments:
[1] = test system: volunteer suffering from diabetes; experiment: sugar curve after dietic breakfast in volunteer with diabetes in a light form; assay type: in vivo, human
Description: Volunteer (body weight 89 kg) suffered from diabetes in a light form for 10 years. The blood sugar level in the morning on empty stomach was varied from 125 to 190 mg%. On recommendation of the endocrinologist, they were treated with maninyl in a dose of from 0.00125 to 0.0025 g (1/4-1/2 of a tablet) a day. 6 tests were performed including 1 control sugar curve at the background of administration of a dietic breakfast, the 2-nd test--the same curve but with administration, during breakfast, of 0.00125 g of maninyl and 4 tests with the preparation according to the present invention. The doses of insulin in the plates of the preparation of this invention were […]. The duration of resorption of the plates was 9 to 36 minutes. The breakfast was 9-37 minutes thereafter.
The sugar curve obtained after the control test against the background of having a dietic breakfast without hypoglycemic remedies had the following character: the starting blood sugar level was 125 mg%; after 30 minutes since the breakfast--153 mg%; 60 minutes thereafter--155 mg%, 2 hours thereafter--135 mg%, i.e., after 30 and 60 minutes, the blood sugar level was increased by 22 and 24% respectively relative to the initial value.
In a week, the test was repeated; however, during the dietic breakfast, the volunteer was administered 0.00125 g of maninyl (1/4 of a tablet). […] The absolute level of blood sugar was as high as 200 mg%. After 120 minutes, a high blood sugar level was retained--170 mg% which was by 10% higher than the initial value on the same day of investigation.
One week afterwards, the experiment was repeated. The initial level of blood sugar was equal to 190 mg%. The volunteer was administered a plate of the preparation of this invention containing 16 units of insulin (test dose) sublingually; 30 minutes thereafter, the volunteer had breakfast (dietic one). 30 minutes after the breakfast, the blood sugar level was increased up to 200 mg% (by 5% altogether) which was by 17% below the raise in the control test; after 60 minutes--by 26% (240 mg%) which substantially corresponded to the level raise in the control investigation (+2%) and after 120 minutes--reduced by 8% of the initial value (175 mg%) which was by 16% below the level in the control test.

[2] = test system: volunteer patients-physicians; experiment: sugar curve after glucose load per os (0.7 g/kg) in volunteers; assay type: in vivo, human; details: for decrease in the blood sugar level as compared to the control sugar curve: subcutaneous 16 units (after volunteer I.)
Description: The pharmaceutical preparation for the treatment of diabetes mellitus has been studied on volunteer patients-physicians. The experiments have been performed on 8 volunteers. 58 tests were carried out including 9 control tests without administration of insulin, 6 control tests with subcutaneous administration of insulin and 43 experimental tests with the administration of plates of the preparation according to the present invention. The control investigation--a sugar curve--has been taken for every volunteer. This involved determination of the blood sugar level in an empty stomach, whereafter the patient was administered glucose per os at the rate of 0.7 g/kg of the body weight diluted with 200 ml of warm water and then the blood sugar level was determined after 30, 60 and 120 minutes. Therefore, in this manner, the blood sugar level variations were determined under the effect of administration of gluclose including the determination of the maximum increase as a percentage of the starting sugar level in blood in the empty-stomach state. After 1-2 weeks, the investigation with a similar sugar load was repeated simultaneously with subcutaneous administration of crystalline insulin at the rate of 0.1-0.2 unit/kg of the body weight right after the administration of the same dose of glucose. After an additional 1-2 weeks, the investigation with the preparation according to the present invention has been carried out. The preparation according to the present invention in the form of plates of a polymer was placed under the tongue by application of the plates to the lower lingual surface at its root or at any other suitable place of the mucous membrane of the mouth cavity. The content of insulin in the plates was varied from 8 to 150 units. After a complete resorption of the plate, maximum within 60 minutes, the volunteer was given a standard dose of glucose per os. The blood examination for sugar has been performed on an empty stomach after 30, 60 and 120 minutes since the glucose administration. The hypoglycemic effect of the test preparations was evaluated by the difference in sugar levels in blood (%) as compared to the control test (without insulin).

patients = details: subcutaneous (sometimes intramuscular) injection, majority of patients; cited from earlier work

Molecule: COc1ccc(Cl)cc1C(=O)NCCc1ccc(S(=O)(=O)NC(=O)NC2CCCCC2)cc1 [maninyl]
- raise of the sugar curve, % of the initial value ([1]; 0.00125 g during dietic breakfast, after 30 and 60 minutes, starting level 155 mg%): +29%
- blood sugar level higher than the initial value ([1]; 0.00125 g during dietic breakfast, after 120 minutes): 10%
- absolute level of blood sugar (as high as) ([1]; 0.00125 g during dietic breakfast, starting level 155 mg%): 200 mg%
- hypoglycemic effect (in words) ([1]; dose prescribed by the endocrinologist): no hypoglycemic effect at all

Molecule: crystalline insulin: crystalline insulin administered subcutaneously as comparison
- sugar level higher than the control value ([2]; subcutaneous 8 units (volunteer D.), after 30 minutes): 6%
- sugar level below the control level ([2]; subcutaneous 8 units (volunteer D.), after 60 minutes): 60%
- sugar level above the control level ([2]; subcutaneous 8 units (volunteer D.), after 120 minutes): 20%
- blood sugar level exceeded the control value ([2]; subcutaneous 8 units (volunteer P.), after 30 minutes): 16%
- blood sugar level below the control value ([2]; subcutaneous 8 units (volunteer P.), after 60 minutes): 43%
- blood sugar level below the control ([2]; subcutaneous 8 units (volunteer P.), after 120 minutes): 12%
- blood sugar level increased as compared to the initial value ([2]; subcutaneous 8 units with 56 g glucose (volunteer D.), after 30 minutes): 86%
- blood sugar level increased as compared to the initial value ([2]; subcutaneous 8 units with 56 g glucose (volunteer D.), after 60 minutes): 40%
- blood sugar level increased as compared to the initial value ([2]; subcutaneous 8 units with 56 g glucose (volunteer D.), after 120 minutes): 33%
- blood sugar level increased as compared to the initial value ([2]; subcutaneous 8 units with 56 g glucose (volunteer P.), after 30 minutes): 87%
- blood sugar level lowered ([2]; subcutaneous 8 units with 56 g glucose (volunteer P.), after 60 minutes): 53%
- blood sugar level relative to the initial level (in words) ([2]; subcutaneous 8 units with 56 g glucose (volunteer P.), after 120 minutes): returned to the initial level
- decrease in the blood sugar level as compared to the control sugar curve ([2]; after 30 minutes): 55%
- decrease in the blood sugar level as compared to the control sugar curve ([2]; after 60 minutes): 18%
- decrease in the blood sugar level as compared to the control sugar curve ([2]; after 120 minutes): 34%
- sugar level in blood increased relative to the initial value ([2]; subcutaneous 16 units with 56 g glucose (after volunteer I.), after 30 minutes): 31%
- sugar level in blood increased relative to the initial value ([2]; subcutaneous 16 units with 56 g glucose (after volunteer I.), after 60 minutes): 13%
- sugar level in blood reduced relative to the initial value ([2]; subcutaneous 16 units with 56 g glucose (after volunteer I.), after 120 minutes): 7%
- time to maximum effect (patients): 2 to 5 h
